Where two headings read alike, the source gives them in different places.
What was measured:
[1] = target: T1, human Cot catalytic domain (30-397 amino acids) (Homo sapiens, UniProt P41279); assay: High Throughput Cot Biochemical Assay (KinEASE TR-FRET); settings: Cot KinEASE TR-FRET, 400 μM ATP; read-out: IC50 HTRF
T1 construct: Purified recombinant human Cot catalytic domain (30-397 amino acids) was purchased from Cama Biosciences; purchased Cama Biosciences (so in the source)
Summary of the method: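 First, purified human Cot (aa 30-397) at 5 nM phosphorylates an XL665-labeled STK3 peptide (1 μM) at 400 μM ATP, pH 7.0, 0.1% DMSO. Then a europium-conjugated phospho-specific antibody binds the product, giving the TR-FRET signal.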

[2] = tested on: TNFα production in LPS-stimulated human monocytes; assay: Cot Monocyte TNFα Cell Based Assay; settings: LPS-stimulated human monocytes, TNFα TR-FRET, read-out: EC50 TNF
Summary of the method: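 5,000 cells/well; cmpd 1 h, 37 °C, 0.5% DMSO final; LPS 50 pg/ml, 4 h, 37 °C; media TNFα by HTRF sandwich (cryptate/XL665), RT overnight; % control vs unstimulated/stimulated wells.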

T1 sequence (P41279 30-397): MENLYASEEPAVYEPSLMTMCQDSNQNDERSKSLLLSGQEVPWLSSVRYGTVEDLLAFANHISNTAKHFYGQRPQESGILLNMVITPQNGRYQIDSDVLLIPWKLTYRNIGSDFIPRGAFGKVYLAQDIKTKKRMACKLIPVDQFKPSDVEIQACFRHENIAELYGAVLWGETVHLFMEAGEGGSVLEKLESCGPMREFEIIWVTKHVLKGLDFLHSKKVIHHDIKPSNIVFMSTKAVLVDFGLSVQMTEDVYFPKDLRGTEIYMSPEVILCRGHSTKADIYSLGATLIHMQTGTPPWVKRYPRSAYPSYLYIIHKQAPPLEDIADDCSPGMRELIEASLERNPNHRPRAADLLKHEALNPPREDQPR

Row | Compound | IC50 [1] [µM] | EC50 ([2]; Homo sapiens, Monocyte) [µM] | EC50 [2] [µM]
1 | Cc1c(C#N)cccc1[C@H](Nc1cc(Cl)c2ncc(C#N)c(NCC(C)(C)C)c2c1)c1cn(C2(C3CC3)CC2)nn1 [Example 1109, (S)-6-(((1-([1,1'-bi(cyclopropan)]-1-yl)-1H-1,2,3-triazol-4-yl)(3-cyano-2-methylphenyl)-methyl)amino)-8-chloro-4-(neopentylamino)quinoline-3-carbonitrile] | 0.005 | 0.057 | –
2 | Cc1nnc(C2(n3cc([C@@H](Nc4cc(Cl)c5ncc(C#N)c(NCC(C)(C)C)c5c4)c4ccccc4Cl)nn3)CC2)o1 [Example 1110, (S)-8-chloro-6-(((2-chlorophenyl)(1-(1-(5-methyl-1,3,4-oxadiazol-2-yl)cyclopropyl)-1H-1,2,3-triazol-4-yl)methyl)amino)-4-(neopentylamino)quinoline-3-carbonitrile] | 0.026 | 0.079 | –
3 | [2H]C(Nc1cc(C#N)c2ncc(C#N)c(NCC(C)(C)C)c2c1)(c1cn(C2(C(F)F)CC2)nn1)c1ccccc1Cl (stereo not drawn) [Example 1111, 6-(((2-chlorophenyl)(1-(1-(difluoromethyl)cyclopropyl)-1H-1,2,3-triazol-4-yl)methyl-d)amino)-4-(neopentylamino)-quinoline-3,8-dicarbonitrile] | 0.013 | 0.098 | –
4 | CC(C)(C)CNc1c(C#N)cnc2c(Cl)cc(N[C@H](c3cn(C4(C(F)(F)F)CC4)nn3)c3cccc(C(=O)O)c3F)cc12 [Example 1112, (S)-3-(((8-chloro-3-cyano-4-(neopentylamino)quinolin-6-yl)amino)(1-(1-(trifluoromethyl)cyclopropyl)-1H-1,2,3-triazol-4-yl)methyl)-2-fluorobenzoic acid] | 0.076 | ≥ 1 | –
5 | CN(C)C(=O)c1cccc([C@H](Nc2cc(Cl)c3ncc(C#N)c(NCC(C)(C)C)c3c2)c2cn(C3(C(F)(F)F)CC3)nn2)c1F [Example 1113, (S)-3-(((8-chloro-3-cyano-4-(neopentylamino)quinolin-6-yl)amino)(1-(1-(trifluoromethyl)cyclopropyl)-1H-1,2,3-triazol-4-yl)methyl)-2-fluoro-N,N-dimethylbenzamide] | 0.022 | 0.444 | –
6 | CNC(=O)c1cccc([C@H](Nc2cc(Cl)c3ncc(C#N)c(NCC(C)(C)C)c3c2)c2cn(C3(C(F)(F)F)CC3)nn2)c1F [Example 1114, (S)-3-(((8-chloro-3-cyano-4-(neopentylamino)quinolin-6-yl)amino)(1-(1-(trifluoromethyl)cyclopropyl)-1H-1,2,3-triazol-4-yl)methyl)-2-fluoro-N-methylbenzamide] | 0.005 | 0.408 | –
7 | CC(C)(C)CNc1c(C#N)cnc2c(Cl)cc(N[C@H](c3cn(C4(C(F)(F)F)CC4)nn3)c3cccc(C(N)=O)c3F)cc12 [Example 1115, (S)-3-(((8-chloro-3-cyano-4-(neopentylamino)quinolin-6-yl)amino)(1-(1-(trifluoromethyl)cyclopropyl)-1H-1,2,3-triazol-4-yl)methyl)-2-fluorobenzamide] | 0.006 | 0.176 | –
8 | CNC(=O)c1cc([C@H](Nc2cc(Cl)c3ncc(C#N)c(NCC(C)(C)C)c3c2)c2cn(C3(C(F)(F)F)CC3)nn2)ccc1F [Example 1116, (S)-5-(((8-chloro-3-cyano-4-(neopentylamino)quinolin-6-yl)amino)(1-(1-(trifluoromethyl)cyclopropyl)-1H-1,2,3-triazol-4-yl)methyl)-2-fluoro-N-methylbenzamide] | 0.038 | ≥ 1 | –
9 | CC(C)(C)CNc1c(C#N)cnc2c(Cl)cc(N[C@@H](c3ccc(F)c(C(N)=O)c3)c3cn(C4(C(F)(F)F)CC4)nn3)cc12 [Example 1117, (S)-5-(((8-chloro-3-cyano-4-(neopentylamino)quinolin-6-yl)amino)(1-(1-(trifluoromethyl)cyclopropyl)-1H-1,2,3-triazol-4-yl)methyl)-2-fluorobenzamide] | 0.029 | 0.561 | –
10 | Cc1c(-c2ccccn2)cccc1[C@H](Nc1cc(Cl)c2ncc(C#N)c(NCC(C)(C)C)c2c1)c1cn(C2(C(F)(F)F)CC2)nn1 [Example 1118, (S)-8-chloro-6-(((2-methyl-3-(pyridin-2-yl)phenyl)(1-(1-(trifluoromethyl)cyclopropyl)-1H-1,2,3-triazol-4-yl)methyl)amino)-4-(neopentylamino)quinoline-3-carbonitrile] | 0.028 | 0.921 | –
11 | Cc1c(-c2cn(C)cn2)cccc1[C@H](Nc1cc(Cl)c2ncc(C#N)c(NCC(C)(C)C)c2c1)c1cn(C2(C(F)(F)F)CC2)nn1 [Example 1119, (S)-8-chloro-6-(((2-methyl-3-(1-methyl-1H-imidazol-4-yl)phenyl)(1-(1-(trifluoromethyl)cyclopropyl)-1H-1,2,3-triazol-4-yl)methyl)amino)-4-(neopentylamino)quinoline-3-carbonitrile] | 0.011 | 0.351 | –
12 | Cc1c(-c2cncn2C)cccc1[C@H](Nc1cc(Cl)c2ncc(C#N)c(NCC(C)(C)C)c2c1)c1cn(C2(C(F)(F)F)CC2)nn1 [Example 1120, (S)-8-chloro-6-(((2-methyl-3-(1-methyl-1H-imidazol-5-yl)phenyl)(1-(1-(trifluoromethyl)cyclopropyl)-1H-1,2,3-triazol-4-yl)methyl)amino)-4-(neopentylamino)quinoline-3-carbonitrile] | 0.006 | 0.088 | –
13 | Cc1c(C#N)cccc1[C@H](Nc1cc(C#N)c2ncc(C#N)c(NCC(C)(C)C(F)(F)F)c2c1)c1cn(C2(C(F)F)CC2)nn1 [Example 1126, (S)-6-(((3-cyano-2-methylphenyl)(1-(1-(difluoromethyl)cyclopropyl)-1H-1,2,3-triazol-4-yl)methyl)amino)-4-((3,3,3-trifluoro-2,2-dimethylpropyl)amino)quinoline-3,8-dicarbonitrile] | 0.005 | – | 0.066
14 | Cc1c(F)cccc1[C@H](Nc1cc(C#N)c2ncc(C#N)c(NCC(C)(C)C)c2c1)c1cn(C2(C(F)(F)F)CC2)nn1 [Example 1127, (S)-6-(((3-fluoro-2-methylphenyl)(1-(1-(trifluoromethyl)cyclopropyl)-1H-1,2,3-triazol-4-yl)methyl)amino)-4-(neopentylamino)quinoline-3,8-dicarbonitrile] | 0.013 | 0.221 | –

The next compounds have a lower IC50 [1] than those just listed; values first:

Row | IC50 [1] [µM] | EC50 ([2]; Homo sapiens, Monocyte) [µM] | EC50 [2] [µM] | Compound
15 | 0.003 | 0.065 | – | Cc1c(C#N)cccc1[C@H](Nc1cc(Cl)c2ncc(C#N)c(NCC(C)(C)C(F)(F)F)c2c1)c1cn(C23CC(C2)C3)nn1 [Example 1107, (S)-6-(((1-(bicyclo[1.1.1]pentan-1-yl)-1H-1,2,3-triazol-4-yl)(3-cyano-2-methylphenyl)methyl)amino)-8-chloro-4-((3,3,3-trifluoro-2,2-dimethylpropyl)amino) quinoline-3-carbonitrile]
16 | 0.004 | 0.031 | – | Cc1c(C#N)cccc1[C@H](Nc1cc(Cl)c2ncc(C#N)c(NCC(C)(C)C)c2c1)c1cn(C23CC(C2)C3)nn1 [Example 1108, (S)-6-(((1-(bicyclo[1.1.1]pentan-1-yl)-1H-1,2,3-triazol-4-yl)(3-cyano-2-methylphenyl)methyl)amino)-8-chloro-4-(neopentylamino) quinoline-3-carbonitrile]
17 | 0.002 | 0.059 | – | Cc1c(-c2ccnnc2)cccc1[C@H](Nc1cc(Cl)c2ncc(C#N)c(NCC(C)(C)C)c2c1)c1cn(C2(C(F)(F)F)CC2)nn1 [Example 1121, (S)-8-chloro-6-(((2-methyl-3 (pyridazin-4-yl)phenyl)(1-(1-(trifluoromethyl)cyclopropyl)-1H-1,2,3-triazol-4-yl)methyl)amino)-4-(neopentylamino)quinoline-3-carbonitrile]
18 | 0.002 | 0.047 | – | Cc1c(-c2cncn2C)cccc1[C@H](Nc1cc(Cl)c2ncc(C#N)c(NCC(C)(C)C)c2c1)c1cn(C2(C(F)F)CC2)nn1 [Example 1122, (S)-8-chloro-6-(((1-(1-(difluoromethyl)cyclopropyl)-1H-1,2,3-triazol-4-yl)(2-methyl-3-(1-methyl-1H-imidazol-5-yl)phenyl)methyl)amino)-4-(neopentylamino)quinoline-3-carbonitrile]
19 | 0.002 | 0.042 | – | Cc1c(-c2ccnnc2)cccc1[C@H](Nc1cc(Cl)c2ncc(C#N)c(NCC(C)(C)C)c2c1)c1cn(C2(C(F)F)CC2)nn1 [Example 1123, (S)-8-chloro-6-(((1-(1-(difluoromethyl)cyclopropyl)-1H-1,2,3-triazol-4-yl)(2-methyl-3-(pyridazin-4-yl)phenyl)methyl)amino)-4-(neopentylamino)quinoline-3-carbonitrile]
20 | 0.004 | 0.138 | – | CC(C)(C)CNc1c(C#N)cnc2c(C#N)cc(N[C@@H](c3ccccc3)c3cn(C45CC(C4)C5)nn3)cc12 [Example 1124, (S)-6-(((1-(bicyclo[1.1.1]pentan-1-yl)-1H-1,2,3-triazol-4-yl)(phenyl)methyl)amino)-4-(neopentylamino)quinoline-3,8-dicarbonitrile]
21 | 0.004 | 0.051 | – | Cc1c(C#N)cccc1[C@H](Nc1cc(C#N)c2ncc(C#N)c(NCC(C)(C)C(F)(F)F)c2c1)c1cn(C2(C(F)F)CC2)nn1 [Example 1125, (S)-6-(((3-cyano-2-methylphenyl)(1-(1-(difluoromethyl)cyclopropyl)-1H-1,2,3-triazol-4-yl)methyl)amino)-4-((3,3,3-trifluoro-2,2-dimethylpropyl)amino)quinoline-3,8-dicarbonitrile]

Reference: US10316017B2, “COT modulators and methods of use thereof” (Gilead Sciences, Inc., priority 2015, dated 2019)
